In patent US12636266B2 (Rivo Bio, Inc., priority 2024, dated 2026):

biological target: T1, human recombinant 5-HT2A receptor (Homo sapiens, UniProt P28223); assay: IPOne HTRF agonist assay, percent activity at 5-HT2A; type: cell-based; settings: 0.3 μM (second value); relative to a-Me-5-HT; CHO-K1 cells
T1 construct: host or cells: CHO-K1
Description: Example 16: Percent (α-Me-5-HT) Activity at 5-HT2A Assay
Compounds were tested in the IPOne HTRF (Homogeneous Time Resolved Fluorescence) assay at Epics Therapeutics S.A. (Belgium). Briefly, CHO-K1 cells expressing human recombinant 5-HT2A receptor grown to mid-log phase in culture media without antibiotics were detached with PBS-EDTA, centrifuged and resuspended in medium without antibiotics buffer. 20,000 cells were distributed in a 96 well plate and incubated overnight at 37° C. with 5% CO2. For agonist testing (384-well, suspension), 5 μl of cells were dispensed on 5 μl of test compound or reference agonist in each well and the plate was incubated for 60 min. at 37° C. with 5% CO2. IP1-D2 reagent and anti-IP1 cryptate reagents were then dispensed in the wells and IP1 concentrations were then measured following the manufacturer recommendations.

T1 sequence (P28223 whole entry): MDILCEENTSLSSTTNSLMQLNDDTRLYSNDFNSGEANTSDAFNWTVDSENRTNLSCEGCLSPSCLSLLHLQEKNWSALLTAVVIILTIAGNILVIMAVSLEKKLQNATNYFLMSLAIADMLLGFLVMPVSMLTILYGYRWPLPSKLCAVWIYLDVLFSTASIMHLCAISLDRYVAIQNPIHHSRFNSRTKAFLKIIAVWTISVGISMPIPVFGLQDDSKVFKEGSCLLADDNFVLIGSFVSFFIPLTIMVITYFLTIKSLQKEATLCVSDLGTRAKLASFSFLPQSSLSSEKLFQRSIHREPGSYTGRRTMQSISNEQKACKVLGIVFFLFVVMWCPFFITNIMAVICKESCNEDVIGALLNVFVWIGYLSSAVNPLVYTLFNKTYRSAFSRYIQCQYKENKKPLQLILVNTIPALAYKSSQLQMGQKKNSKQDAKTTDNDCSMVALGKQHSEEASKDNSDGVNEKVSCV

First: CCC(N)/C=C1\CCc2ccccc21 (stereo not shown) [Compound 101, 1-[(E)-(1-Indanylidene)methyl]propylamine]
Second: COC1C/C(=C\CN)c2ccccc21 (stereo not shown) [Compound 29]
The “Percent (a-Me-5-HT) Activity at 5-HT2A (30 uM/0.3 μM)” value (“Percent (a-Me-5-HT) Activity” below) of the first is higher: 15% for the first, 6% for the second.

Compared with `COc1ccc2c(c1)/C(=C(\F)CN(C)C)CC2` [Compound 10, N,N-Dimethyl[(Z)-2-(6-methoxy-1-indanylidene)-2-fluoroethyl]amine], `COc1ccc2c(c1)/C(=C/CN(C)C)CC2` [Compound 5, N,N-Dimethyl[(E)-2-(6-methoxy-1-indanylidene)ethyl]amine] is higher in “Percent (a-Me-5-HT) Activity” value: 4% for the first, 74% for the second.

Going from `OCc1ccc2c(c1)/C(=C/CN1CCC1)CC2` [Compound 103, {(E)-3-[2-(1-Azetidinyl)ethylidene]-5-indanyl}methanol] to `COc1ccc2c(c1)/C(=C/CN1CCC1)CC2` [Compound 12, 1-[(E)-2-(6-Methoxy-1-indanylidene)ethyl]azetidine], the “Percent (a-Me-5-HT) Activity” value rises from 9% to 27%.

First: FC(F)(F)Oc1ccc2c(c1)/C(=C/CN1CCC1)CC2 [Compound 27, 1-[(E)-2-(6-Trifluoromethoxy-1-indanylidene)ethyl]azetidine]
Second: C(/CN1CCC1)=C1/CCc2ccc3c(c21)CCO3 [Compound 24, 1-[(E)-2-(3-Oxa-1,2,6,7-tetrahydro-as-indacen-8-ylidene)ethyl]azetidine]
The “Percent (a-Me-5-HT) Activity” value of the first is lower: 5% for the first, 17% for the second.

Going from `CN(C)C/C=C1\C=Cc2ccccc21` [Compound 22, N,N-Dimethyl[(E)-2-(1-indenylidene)ethyl]amine] to `CN(C)C/C=C1\CCc2sccc21` [Compound 31, N,N-Dimethyl[(E)-2-{2-thiabicyclo[3.3.0]octa-1(5),3-dien-6-ylidene}ethyl]amine], the “Percent (a-Me-5-HT) Activity” value falls from 5% to 3%.

Compared with `COC1C/C(=C\CN2CCC2)c2ccccc21` (stereo not shown) [Compound 30, 1-[(E)-2-(3-Methoxy-1-indanylidene)ethyl]azetidine], `CN(C)C/C=C1\CCc2ccc3c(c21)CCO3` [Compound 14, N,N-Dimethyl[(E)-2-(3-oxa-1,2,6,7-tetrahydro-as-indacen-8-ylidene)ethyl]amine] is higher in “Percent (a-Me-5-HT) Activity” value: 3% for the first, 6% for the second.

With `C(/CN1CCC1)=C1/CCc2cccnc21` [Compound 28, 1-[(E)-2-(4-Aza-3-indanylidene)ethyl]azetidine] the “Percent (a-Me-5-HT) Activity” value was 5/5%.

same assay, conditions: 30 uM (first value); relative to a-Me-5-HT; CHO-K1 cells

Compared with `CCC(N)/C=C1\CCc2ccccc21` (stereo not shown) [Compound 101, 1-[(E)-(1-Indanylidene)methyl]propylamine], `COC1C/C(=C\CN)c2ccccc21` (stereo not shown) [Compound 29] is higher in “Percent (a-Me-5-HT) Activity” value: 20% for the first, 53% for the second.

First: COc1ccc2c(c1)/C(=C(\F)CN(C)C)CC2 [Compound 10, N,N-Dimethyl[(Z)-2-(6-methoxy-1-indanylidene)-2-fluoroethyl]amine]
Second: COc1ccc2c(c1)/C(=C/CN(C)C)CC2 [Compound 5, N,N-Dimethyl[(E)-2-(6-methoxy-1-indanylidene)ethyl]amine]
The “Percent (a-Me-5-HT) Activity” value of the first is lower: 1% for the first, 96% for the second.

First: OCc1ccc2c(c1)/C(=C/CN1CCC1)CC2 [Compound 103, {(E)-3-[2-(1-Azetidinyl)ethylidene]-5-indanyl}methanol]
Second: COc1ccc2c(c1)/C(=C/CN1CCC1)CC2 [Compound 12, 1-[(E)-2-(6-Methoxy-1-indanylidene)ethyl]azetidine]
The “Percent (a-Me-5-HT) Activity” value of the first is higher: 94% for the first, 47% for the second.

Going from `FC(F)(F)Oc1ccc2c(c1)/C(=C/CN1CCC1)CC2` [Compound 27, 1-[(E)-2-(6-Trifluoromethoxy-1-indanylidene)ethyl]azetidine] to `C(/CN1CCC1)=C1/CCc2ccc3c(c21)CCO3` [Compound 24, 1-[(E)-2-(3-Oxa-1,2,6,7-tetrahydro-as-indacen-8-ylidene)ethyl]azetidine], the “Percent (a-Me-5-HT) Activity” value rises from 8% to 38%.

First: CN(C)C/C=C1\C=Cc2ccccc21 [Compound 22, N,N-Dimethyl[(E)-2-(1-indenylidene)ethyl]amine]
Second: CN(C)C/C=C1\CCc2sccc21 [Compound 31, N,N-Dimethyl[(E)-2-{2-thiabicyclo[3.3.0]octa-1(5),3-dien-6-ylidene}ethyl]amine]
The “Percent (a-Me-5-HT) Activity” value of the first is higher: 49% for the first, 2% for the second.

Going from `COC1C/C(=C\CN2CCC2)c2ccccc21` (stereo not shown) [Compound 30, 1-[(E)-2-(3-Methoxy-1-indanylidene)ethyl]azetidine] to `CN(C)C/C=C1\CCc2ccc3c(c21)CCO3` [Compound 14, N,N-Dimethyl[(E)-2-(3-oxa-1,2,6,7-tetrahydro-as-indacen-8-ylidene)ethyl]amine], the “Percent (a-Me-5-HT) Activity” value rises from 24% to 33%.

For `C(/CN1CCC1)=C1/CCc2cccnc21` [Compound 28, 1-[(E)-2-(4-Aza-3-indanylidene)ethyl]azetidine], the “Percent (a-Me-5-HT) Activity” value was 5/5%.

same assay, conditions: 1 h; 0.3 μM (second value); relative to a-Me-5-HT; CHO-K1 cells; read-out: Percent (a-Me-5-HT) Activity at 5-HT2A (30 uM/0.3 μM)

Going from `COc1ccc2c(c1)/C(=C(/F)CN(C)C)CC2` [Compound 23, N,N-Dimethyl[(E)-2-(6-methoxy-1-indanylidene)-2-fluoroethyl]amine] to `COc1ccc2c(c1)CC/C2=C\CN(C)C` [Compound 26, N,N-Dimethyl[(E)-2-(5-methoxy-1-indanylidene)ethyl]amine], the activation at 0.3 µM rises from -1% to 10%.

Compound `COc1ccc2c(c1)CC/C2=C\CN1CCC1` [Compound 25, 1-[(E)-2-(5-Methoxy-1-indanylidene)ethyl]azetidine] has an activation at 0.3 µM of 0%.

same assay, conditions: 1 h; 30 uM (first value); relative to a-Me-5-HT; CHO-K1 cells; read-out: Percent (a-Me-5-HT) Activity at 5-HT2A (30 uM/0.3 μM)

First: COc1ccc2c(c1)/C(=C(/F)CN(C)C)CC2 [Compound 23, N,N-Dimethyl[(E)-2-(6-methoxy-1-indanylidene)-2-fluoroethyl]amine]
Second: COc1ccc2c(c1)CC/C2=C\CN(C)C [Compound 26, N,N-Dimethyl[(E)-2-(5-methoxy-1-indanylidene)ethyl]amine]
The activation at 30 µM of the first is lower: -2% for the first, -1% for the second.

Work on `COc1ccc2c(c1)CC/C2=C\CN1CCC1` [Compound 25, 1-[(E)-2-(5-Methoxy-1-indanylidene)ethyl]azetidine] yielded an activation at 30 µM of -3%.

test system: not listed separately; assay: Z to E isomer conversion by NMR; type: physicochemical; settings: shortly following synthesis
Description: Compound 5, described here with structure shown in Scheme 1, is the stable E isomer. However, the initial reaction in Scheme 1 with compound 5-1 produces both the E and Z isomers of 5-2b. Column chromatography was used to separate the isomers and each isomer was then carried through the next three reactions separately, to produce both compound 5 and its Z isomer.

In the case of `COc1ccc2c(c1)/C(=C\C=O)CC2` (single isomer, unassigned) [Z isomer of compound 5-4], the “Z isomer converting to the E isomer (by NMR)” value is reported as 40%.

biological target: T1, human recombinant 5-HT2A receptor; assay: IPOne HTRF agonist assay, percent activity at 5-HT2A; type: cell-based; settings: relative to 5-HT

In the case of `COc1ccc2c(c1)/C(=C/CN(C)C)CC2` [Compound 5, N,N-Dimethyl[(E)-2-(6-methoxy-1-indanylidene)ethyl]amine], the “Percent (5-HT) Activity at 5-HT2A (30 μM)” value is reported as 92%.
